# In US4559323A, “A41030 Antibiotics” (Eli Lilly and Company, priority 1984, dated 1985):
# Like-named read-outs stand apart in the source and are kept apart here.
# What was measured:
# Streptococcus faecalis = assay: Agar-dilution MIC; assay type: cell-based; conditions: Table 7; Streptococcus faecalis X66
# Escherichia coli = assay: Agar-dilution MIC; assay type: cell-based; conditions: Table 17, 24 hours
# [1] = system: Haemophilus parainfluenzae; assay: Agar-dilution MIC; assay type: cell-based; conditions: Table 18, 24 hours
# [2] = system: Streptococcus sp. (Group D) 9960; assay: Disc-plate sensitivity procedure; assay type: cell-based
# Escherichia coli EC14 = assay: Disc-plate sensitivity procedure; assay type: cell-based
# Viridans streptococcus = assay: Agar-dilution MIC; assay type: cell-based; conditions: Table 11
# Pc. constellatus = assay: Agar-dilution MIC (anaerobes); assay type: cell-based, Peptococcus constellatus; conditions: Table 15; Pc. constellatus 1468
# Method: (§1) The MIC values were determined by the agar-dilution method, and are recorded in Table 15, which follows.
# Solubility in solvents = assay type: physicochemical; conditions: solvents as named
# Excerpt: The seven antibiotic factors are recovered from the fermentation and are obtained as a mixture, the A41030 complex. It will be recognized that the ratio of the factors in the A41030 complex will vary, depending upon the fermentation conditions used. The individual factors […], and G are separated and isolated as individual compounds, as hereinafter described.
# [3] = system: Streptococcus pyogenes C203; assay: Disc-plate sensitivity procedure; assay type: cell-based
# [4] = system: Streptococcus pneumoniae Park I; assay: Disc-plate sensitivity procedure; assay type: cell-based
# pseudorabies = conditions: in vitro at 20 mcg./ml.
# Staph. aureus = assay: Experimental bacterial infection in mice, subcutaneous ED50; assay type: in vivo; conditions: two doses subcutaneously
# Method: (§2) All of the A41030 factors tested have shown in vivo antimicrobial activity against experimental bacterial infections. When two doses of test compound were administered subcutaneously to mice in illustrative infections, the activity observed is measured as an ED50 value [effective dose in mg./kg. to protect fifty percent of the test animals: See Warren Wick, et al., J. Bacteriol. 81, 233-235 (1961)].
# S. pneumoniae = assay: as above; assay type: in vivo; conditions: two doses subcutaneously
# Method: as §2
# S. pyogenes = assay: as above; assay type: in vivo; conditions: two doses subcutaneously
# Method: as §2
# Shigella flexneri = conditions: Table 11; Shigella flexneri SH-4
# Excerpt: (§3) The agar-dilution procedure described by the International Collaborative study (ICS) group was used to determine the minimum inhibitory concentrations (MIC's).
# [5] = system: Peptococcus asaccharolyticus; assay: Agar-dilution MIC (anaerobes); assay type: cell-based; conditions: Table 15
# Method: as §1
# [6] = system: Streptococcus sp. Group B; assay: Agar-dilution MIC; assay type: cell-based; conditions: Table 18, 24 hours
# Excerpt: (§4) The in vitro activity of antibiotic A41030 factors A and B against a number of representative aerobic, gram-positive bacteria, including Streptococcus sp. Group D, has been determined using a standard agar-dilution assay.
# [7] = mice, administered intraperitoneally
# Serratia marcescens = assay: Agar-dilution MIC; assay type: cell-based; conditions: Table 17; 24 hours; Serratia marcescens X99
# Klebsiella pneumoniae = assay: Agar-dilution MIC; assay type: cell-based; conditions: Table 17; 24 hours; Klebsiella pneumoniae X68
# Staphylococcus aureus = assay: Agar-dilution MIC; assay type: cell-based
# Pc. magnus = assay: Agar-dilution MIC (anaerobes); assay type: cell-based, Peptococcus magnus; conditions: Table 15
# Method: as §1
# Enterobacter cloacae = assay: Agar-dilution MIC; assay type: cell-based; conditions: Table 17, 24 hours
# [8] = system: Staphylococcus epidermidis; assay: Agar-dilution MIC; assay type: cell-based; conditions: 24 hours
# Excerpt: as §3
# Streptococcus pneumoniae = assay: Agar-dilution MIC; assay type: cell-based; conditions: 24 hours
# Excerpt: as §3
# [9] = system: Peptococcus asaccharolyticus; assay: Agar-dilution MIC (anaerobes); assay type: cell-based; conditions: Table 14; Peptococcus asaccharolyticus 1302
# Citrobacter freundii = conditions: Table 17; 24 hours; Citrobacter freundii CF17
# Excerpt: as §3
# Propionibacterium acnes = assay: Agar-dilution MIC (anaerobes); assay type: cell-based
# Excerpt: Antibiotic A41030 factors A, B and C have also been tested and found to be active against a genus of anaerobic bacteria identified as Propionibacterium acnes.
# [10] = system: Streptococcus sp. ATCC 10389; assay: Agar-dilution MIC; assay type: cell-based; conditions: Table 18, 24 hours
# Excerpt: as §4
# [11] = Haemophilus parainfluenzae 7901
# [12] = Haemophilus parainfluenzae 9796
# [13] = Table 17, 24 hours, Staphylococcus aureus X400
# [14] = Table 17, Staphylococcus epidermidis EPI1
# [15] = Table 17, Streptococcus pneumoniae Park I
# [16] = Table 13, 24-hour, P. acnes 101
# [17] = Table 13, 24-hour, P. acnes 103
# [18] = Table 13, 24-hour, P. acnes 104
# [19] = Table 13, 24-hour, P. acnes 105
# [20] = Table 13, 24-hour, P. acnes 106
# [21] = Table 13, 24-hour, P. acnes 107
# [22] = Table 13, 24-hour, P. acnes 5170
# [23] = Table 13, 24-hour, P. acnes 5176
# [24] = Table 13, 24-hour, P. acnes 5187
# [25] = Table 13, 24-hour, P. acnes 5191
# [26] = Table 13, 24-hour, P. acnes 5197
# [27] = Table 13, 24-hour, P. acnes 5226
# [28] = Table 13, 24-hour, P. acnes 5227
# [29] = Table 13, 24-hour, P. acnes 5228
# [30] = Table 13, 24-hour, P. acnes 5229
# [31] = Table 13, 24-hour, P. acnes 5246
# [32] = Table 13, 24-hour, P. acnes 5292
# [33] = Table 14, Propionibacterium acnes 79
compound,measurement,setting,value
NC1C(=O)NC2Cc3ccc(c(Cl)c3)Oc3cc4cc(c3O)Oc3ccc(cc3Cl)C(O)C3NC(=O)C(NC(=O)C4NC(=O)C(NC2=O)c2cc(O)cc(c2)Oc2cc1ccc2O)c1cc(Cl)c(O)c(c1)-c1c(O)cc(O)cc1C(C(=O)O)NC3=O (stereo not drawn) [A41030 factor A],MIC,Streptococcus faecalis,< 0.5 µg/mL
same,MIC,Escherichia coli; Escherichia coli EC14,128 µg/mL
same,MIC,[1]; [11],16 µg/mL
same,MIC,[1]; [12],16 µg/mL
same,Zone diameter,"[2]; Table 8, 10 μg./disc",16.4 mm
same,Zone diameter,"[2]; Table 8, 100 μg./disc",20.5 mm
same,Zone diameter,"Escherichia coli EC14; Table 8, 10 μg./disc",0 mm
same,Zone diameter,"Escherichia coli EC14; Table 8, 100 μg./disc",8.0 mm
same,MIC,Viridans streptococcus; Viridans streptococcus SM-1134,0.5 µg/mL
same,MIC,Viridans streptococcus; Viridans streptococcus SSI-910,0.25 µg/mL
same,MIC,Viridans streptococcus; Viridans streptococcus SSII-895,0.25 µg/mL
same,MIC,Pc. constellatus,0.5 µg/mL
same,Solubility,Solubility in solvents,"soluble in alcohol-water mixtures, in dimethylsulfoxide, in dimethylformamide, in dimethylsulfoxide-water mixtures, in dimethylformamide-water mixtures, in dilute aqueous acid, and in dilute aqueous base"
same,Zone diameter,"[3]; Table 8, 10 μg./disc",12.0 mm
same,Zone diameter,"[3]; Table 8, 100 μg./disc",15.0 mm
same,Zone diameter,"[4]; Table 8, 10 μg./disc",15.0 mm
same,Zone diameter,"[4]; Table 8, 100 μg./disc",17.0 mm
same,activity against pseudorabies,pseudorabies,shown activity
same,ED50,Staph. aureus,1.4 mg/kg
same,ED50,S. pneumoniae,1.68 mg/kg
same,ED50,S. pyogenes,2.8 mg/kg
same,MIC,Shigella flexneri,64 µg/mL
same,MIC,[5]; Pc. asaccharolyticus 1302,≤ 0.03 µg/mL
same,MIC,[5]; Pc. asaccharolyticus 1344,0.5 µg/mL
same,MIC,[6]; Streptococcus sp. Group B 5,1 µg/mL
same,MIC,[6]; Streptococcus sp. Group B 14,0.06 µg/mL
same,LD50,[7],> 300 mg/kg
same,acute toxicity,[7],> 300 mg/kg
N[C@H]1C(=O)N[C@@H]2Cc3ccc(c(Cl)c3)Oc3cc4cc(c3O)Oc3ccc(cc3Cl)[C@@H](O)[C@@H]3NC(=O)C(NC(=O)[C@@H]4NC(=O)[C@@H](NC2=O)c2cc(O)cc(c2)Oc2cc1ccc2O)c1ccc(O)c(c1)-c1c(O)cc(O)cc1[C@@H](C(=O)O)NC3=O [A41030 factor B],MIC,Serratia marcescens,128 µg/mL
same,MIC,Escherichia coli; Escherichia coli EC14,128 µg/mL
same,MIC,Escherichia coli; Escherichia coli N10,128 µg/mL
same,MIC,Escherichia coli; Escherichia coli TEM,128 µg/mL
same,MIC,Klebsiella pneumoniae,128 µg/mL
same,MIC,[1]; [11],16 µg/mL
same,MIC,[1]; [12],16 µg/mL
same,MIC,Pc. constellatus,0.5 µg/mL
same,Solubility,Solubility in solvents,soluble in the same solvents as factor A
same,MIC,Staphylococcus aureus,0.125 µg/mL
same,MIC,"Staphylococcus aureus; Table 17, 24 hours, Staphylococcus aureus S13E",0.125 µg/mL
same,MIC,Staphylococcus aureus; [13],0.25 µg/mL
same,MIC,"Staphylococcus aureus; Table 18, 24 hours, Staphylococcus aureus 3055",0.06 µg/mL
same,MIC,"Staphylococcus aureus; Table 18, 24 hours, Staphylococcus aureus V138",0.06 µg/mL
same,MIC,Pc. magnus; Pc. magnus 1401,0.125 µg/mL
same,MIC,Pc. magnus; Pc. magnus 1421,0.125 µg/mL
same,MIC,Pc. magnus; Pc. magnus 1477,0.25 µg/mL
same,MIC,Enterobacter cloacae; Enterobacter cloacae 265A,128 µg/mL
same,MIC,Enterobacter cloacae; Enterobacter cloacae EB5,128 µg/mL
same,MIC,[8]; [14],0.125 µg/mL
same,MIC,"[8]; Table 17, Staphylococcus epidermidis EPI2",0.5 µg/mL
same,MIC,"[8]; Table 18, Staphylococcus epidermidis 219",0.03 µg/mL
same,MIC,"[8]; Table 18, Staphylococcus epidermidis 222",0.125 µg/mL
same,MIC,"[8]; Table 18, Staphylococcus epidermidis 269",0.03 µg/mL
same,MIC,"[8]; Table 18, Staphylococcus epidermidis 270",0.06 µg/mL
same,MIC,"[8]; Table 18, Staphylococcus epidermidis 285",0.03 µg/mL
same,MIC,Streptococcus pneumoniae; [15],0.5 µg/mL
same,MIC,"Streptococcus pneumoniae; Table 18, Streptococcus pneumoniae B1-438",0.5 µg/mL
same,MIC,"Streptococcus pneumoniae; Table 18, Streptococcus pneumoniae Park I",0.125 µg/mL
same,ED50,Staph. aureus,< 0.43 mg/kg
same,ED50,S. pneumoniae,1.4 mg/kg
same,ED50,S. pyogenes,1.4 mg/kg
same,MIC,[9],≤ 0.25 µg/mL
same,MIC,Citrobacter freundii,128 µg/mL
same,MIC,"Propionibacterium acnes; Table 13, 24-hour, P. acnes 44",0.06 µg/mL
same,MIC,"Propionibacterium acnes; Table 13, 24-hour, P. acnes 79",0.06 µg/mL
same,MIC,Propionibacterium acnes; [16],0.06 µg/mL
same,MIC,Propionibacterium acnes; [17],0.06 µg/mL
same,MIC,Propionibacterium acnes; [18],0.25 µg/mL
same,MIC,Propionibacterium acnes; [19],0.06 µg/mL
same,MIC,Propionibacterium acnes; [20],0.06 µg/mL
same,MIC,Propionibacterium acnes; [21],0.06 µg/mL
same,MIC,Propionibacterium acnes; [22],≤ 0.03 µg/mL
same,MIC,Propionibacterium acnes; [23],0.06 µg/mL
same,MIC,Propionibacterium acnes; [24],0.06 µg/mL
same,MIC,Propionibacterium acnes; [25],0.06 µg/mL
same,MIC,Propionibacterium acnes; [26],0.06 µg/mL
same,MIC,Propionibacterium acnes; [27],0.5 µg/mL
same,MIC,Propionibacterium acnes; [28],0.06 µg/mL
same,MIC,Propionibacterium acnes; [29],0.5 µg/mL
same,MIC,Propionibacterium acnes; [30],0.25 µg/mL
same,MIC,Propionibacterium acnes; [31],0.125 µg/mL
same,MIC,Propionibacterium acnes; [32],0.06 µg/mL
same,MIC,Propionibacterium acnes; [33],16 µg/mL
same,MIC,[5]; Pc. asaccharolyticus 1302,0.125 µg/mL
same,MIC,[5]; Pc. asaccharolyticus 1344,0.5 µg/mL
same,MIC,[10],0.25 µg/mL
same,MIC,[6]; Streptococcus sp. Group B 5,1 µg/mL
same,MIC,[6]; Streptococcus sp. Group B 14,0.125 µg/mL
same,LD50,[7],> 300 mg/kg
same,acute toxicity,[7],> 300 mg/kg
A41030 factor C,MIC,Pc. constellatus,0.5 µg/mL
same,Solubility,Solubility in solvents,soluble in the same solvents as factor A
same,MIC,Staphylococcus aureus; [13],1 µg/mL
same,MIC,Pc. magnus; Pc. magnus 1401,0.25 µg/mL
same,MIC,Pc. magnus; Pc. magnus 1421,0.25 µg/mL
same,MIC,Pc. magnus; Pc. magnus 1477,0.5 µg/mL
same,MIC,[8]; [14],0.5 µg/mL
same,MIC,Streptococcus pneumoniae; [15],1 µg/mL
same,ED50,Staph. aureus,< 0.43 mg/kg
same,ED50,S. pneumoniae,6.7 mg/kg
same,ED50,S. pyogenes,10.4 mg/kg
same,MIC,[9],≤ 0.25 µg/mL
same,MIC,"Propionibacterium acnes; Table 13, 24-hour, P. acnes 44",0.125 µg/mL
same,MIC,"Propionibacterium acnes; Table 13, 24-hour, P. acnes 79",0.125 µg/mL
same,MIC,Propionibacterium acnes; [16],0.125 µg/mL
same,MIC,Propionibacterium acnes; [17],0.125 µg/mL
same,MIC,Propionibacterium acnes; [18],0.25 µg/mL
same,MIC,Propionibacterium acnes; [19],0.125 µg/mL
same,MIC,Propionibacterium acnes; [20],0.125 µg/mL
same,MIC,Propionibacterium acnes; [21],0.125 µg/mL
same,MIC,Propionibacterium acnes; [22],≤ 0.03 µg/mL
same,MIC,Propionibacterium acnes; [23],≤ 0.03 µg/mL
same,MIC,Propionibacterium acnes; [24],0.06 µg/mL
same,MIC,Propionibacterium acnes; [25],0.125 µg/mL
same,MIC,Propionibacterium acnes; [26],≤ 0.03 µg/mL
same,MIC,Propionibacterium acnes; [27],0.125 µg/mL
same,MIC,Propionibacterium acnes; [28],0.06 µg/mL
same,MIC,Propionibacterium acnes; [29],1.0 µg/mL
same,MIC,Propionibacterium acnes; [30],0.5 µg/mL
same,MIC,Propionibacterium acnes; [31],0.06 µg/mL
same,MIC,Propionibacterium acnes; [32],0.06 µg/mL
same,MIC,Propionibacterium acnes; [33],≤ 0.25 µg/mL
same,MIC,[5]; Pc. asaccharolyticus 1302,0.125 µg/mL
same,MIC,[5]; Pc. asaccharolyticus 1344,1.0 µg/mL
